Test results taken from article PMC3393750, “Small Molecule Inhibitors of the LEDGF Site of Human Immunodeficiency Virus Integrase Identified by Fragment Screening and Structure Based Design” (PLoS ONE, 2012).
Read-outs that look alike come from different tables or passages of the source.

Assays:
HIV IN [1] = target: T1, HIV IN (Human immunodeficiency virus type 1 group M subtype B, UniProt P12497); settings: read-out: IC50 active site directed strand transfer assay; cited from earlier work
LEDGF site of HIV IN = tested on: LEDGF site of HIV IN; design: method as in PMID 21767569; settings: read-out: IC50 AS assay for binding at the LEDGF site; cited from earlier work
[2] = target: T2, His6-tagged HIV IN / Flag-tagged LEDGF interaction (Human immunodeficiency virus type 1 group M subtype B, UniProt P12497); experiment: IN-LEDGF AlphaScreen (AS) assay; assay type: binding, HIV-1; settings: 30 nM IN, 30 nM Flag-LEDGF, 30°C
T2 construct: Hexa-His tagged full length HIV IN was expressed and purified as follows; made in house; host or cells: E. coli BL21(DE3), pET28b(+)
Protocol: (§1) For the IN-LEDGF AS assay, compound dilutions and His6-tagged IN (30 nM final concentration) were initially incubated together in 10 µl of reaction buffer (25 mM Tris-Cl pH 7.5, 25 mM NaCl, 5 mM MnCl2, 5 mM MgCl2, 5 mM BME, 50 µg/ml bovine serum albumin and 0.05% (v/v) Tween-20) for 10 min at room temperature in AlphaPlate™-384 SW plates (Perkin-Elmer). Subsequently, 10 µl reaction buffer containing Flag-tagged LEDGF (30 nM final concentration), AS Ni-chelate donor beads (Perkin-Elmer; 5 µg/ml final) and AlphaLISA anti-FLAG acceptor beads (Perkin-Elmer; 5 µg/ml final) were added and protein association allowed to occur for 1 hour in the dark at 30°C before emission from the donor beads was measured using a PHERAstar FS plate-reader (BMG Labtech). Counter screen assays to ensure the compounds were not inhibiting the binding of the His or FLAG tags to the beads or quenching of the signal, were performed under the same reaction conditions except that a Flag-His6 fusion protein was used (20 nM final) instead of individual His6-tagged IN and Flag-tagged LEDGF proteins, and the initial 10 min incubation at room temperature was omitted.

HIV-1NL4-3 = experiment: Virus infectivity assay (p24) in HuT78 cells; assay type: cell-based; settings: Human immunodeficiency virus 1, p24 production
Protocol: (§2) HuT78 cells were seeded into 96 well microtiter plates at 50,000 cells per 50 µl per well in RF-10 containing 2 µg/ml polybrene (RF-10/2). Compounds were prepared to 4× final concentration in RF-10/2, and 30 µl was added to cells. HIV-1NL4–3 (40 µl in RF-10/2 containing 1600 plaque forming units (pfu)) was added to each well or 40 µl of RF-10/2 was added to the negative controls, and when assaying compound cytotoxicity. pfu were determined by titrating virus stocks on HT4LacZ cells as described by Rocancourt et al. After 24 hours, an additional 90 µl of media or media containing 1× compound was added to each well. At 4 days post-infection, 100 µl of media was removed from each well and replaced with 100 µl of fresh media with or without compound. 48 hours later supernatants were harvested and levels of extracellular p24 determined. Supernatants were diluted 1 in 10,000 and p24 levels assayed using the Vironostika p24 assay kit.

[3] = Cell toxicity counter screen of virus infectivity assay; assay type: cell-based; settings: human, HuT78 cells
Protocol: as §2

[4] = target: T3, HIV integrase catalytic core domain core3H (C56S, F139D, F185H) (Human immunodeficiency virus type 1 group M subtype B, UniProt P12497, C1203S/F1286D/F1332H); experiment: SPR binding to core3H; settings: construct not given
T3 construct: catalytic core domain (CCD) IN (residues 50 to 210) containing the mutations C56S, F139D and F185H (core3H); made in house; host or cells: E. coli, pET28b(+)
Protocol: Core3H and core4H proteins (∼3×10^−8 moles) were “minimally” biotinylated on ice for 2 hours using an equimolar concentration of EZ-Link® Sulfo-NHS-LC-LC-Biotin (Pierce). To remove unreacted biotin reagent, biotinylated proteins were passed through a Superdex 75 (10/300 GL) column equilibrated in ‘SPR capture’ buffer (50 mM HEPES pH 7.4, 150 mM NaCl, 0.05% (v/v) Tween20, 5 mM DTT, 10 mM MgCl2). The eluted proteins were stored frozen in 50 µl aliquots at −70°C. Streptavidin (Sigma) was immobilized at 25°C onto a CM7 sensor chip (GE Healthcare) docked in a Biacore T200 upgrade instrument (GE Healthcare) using a previously described procedure resulting in immobilization levels of approximately 12000 RU of protein being coupled in all flow cells. The biotinylated core IN proteins were captured onto a Streptavidin chip surface in SPR capture buffer by injecting at 5 µL/min for 5 min over a single flow cell, typically resulting in immobilization of approximately 2300 RU of target protein. A minimally-biotinylated tyrosine kinase domain of CSF-1-R was captured (∼4300 RU) in a separate flow cell to provide for an unrelated negative control. […] All SPR binding experiments were performed at 20°C in SPR binding buffer (50 mM HEPES pH 7.4, 150 mM NaCl, 0.05% (v/v) Tween20, 5 mM DTT, 10 mM MgCl2, 5% (v/v) DMSO). Small molecules stock solutions were serially diluted (2-fold) in SPR binding buffer and injected for 30 sec contact time at 60 µL/min and then allowed to dissociate for 60 sec. The entire concentration series for each compound was performed in triplicate.
Raw sensorgram data were processed, solvent corrected and double referenced using Scrubber software (BioLogic Software, Australia). For easy comparison between data sets, all experiments were normalized using a normalization formula of Giannetti et al. To determine the binding affinity (KD), responses at equilibrium for each analyte were fitted to a 1∶1 steady state affinity model available within Scrubber.

Flag-His6 fusion protein = experiment: AlphaScreen counter screen; settings: Flag-His6 fusion protein 20 nM
Protocol: as §1, with “omitted. The specificity of FLAG-LEDGF for IN binding was confirmed by competing the FLAG-LEDGF with untagged LEDGF. At a 1∶1 molar ratio with FLAG-LEDGF, untagged LEDGF reduced the AS signal by 50%.” for “omitted.”

HIV IN [5] = target: T1, HIV IN; experiment: Strand transfer assay which did not contain LEDGF; assay type: biochemical; settings: without LEDGF; data not shown
[6] = tested on: HIV-1 with IN Q148H/G140S (QHGS); experiment: Single-round infectivity assay in 293T cells, IN QHGS mutant; assay type: cell-based; settings: Human immunodeficiency virus 1, HEK-293T, read-out: EC50 cell infectivity assay, IN QHGS
Protocol: (§3) Single-round infectivity assays were performed with 293T cells. […]. […] Culture supernatants containing VSV-G pseudotyped virions were harvested 64 hours post-transfection, clarified by centrifugation to remove cell debris, and stored at −80°C. HIV IN mutations known to confer resistance to published IN inhibitors were prepared by site directed mutagenesis of the pol (IN) gene in a shuttle vector which contained the majority of the HIV gag and pol sequence. The mutated IN coding region was then sequence verified and exchanged for the wild-type coding sequence in the pHIV env-Luc reporter virus plasmid. Single round infection assays were conducted in 293T cells seeded in 96 well plates 16 hours prior to compound addition. Compounds were pre-incubated with cells for 4 hours at 37°C followed by the addition of sufficient virus to generate approximately 10,000 Luciferase light units in the absence of compound. Luciferase readout was measured 48 hours post-infection using the Bright-Glo™ reagent (Promega) according to the manufacturer’s instructions.

[7] = tested on: HIV-1 with IN N155H/E92Q (NHEQ); experiment: Single-round infectivity assay in 293T cells, IN NHEQ mutant; assay type: cell-based; settings: Human immunodeficiency virus 1, HEK-293T, read-out: EC50 cell infectivity assay, IN NHEQ
Protocol: as §3

[8] = tested on: LEDGF interaction with IN; design: method as in PMID 20473303; settings: read-out: AS IC50; cited from earlier work
HIV-1 [9] = tested on: HIV-1; design: method as in PMID 20473303; settings: PBMC cells; read-out: EC50 HIV-1 infection of PBMC cells; cited from earlier work
HIV IN [10] = target: T1, HIV IN; settings: read-out: IC50 inhibition of strand transfer activity of HIV IN; cited from earlier work
HIV-1 [11] = tested on: HIV-1; design: method as in PMID 20473303; settings: MT-4 cells; read-out: EC50 HIV-1 infection of MT-4 cells; cited from earlier work
HIV IN [12] = target: T1, HIV IN; settings: read-out: IC50 strand transfer; cited from earlier work
HIV IN [13] = target: T1, HIV IN; settings: cited from earlier work
HIV-1 with wild type IN = experiment: Single-round infectivity assay in 293T cells, wild type IN; assay type: cell-based; settings: Human immunodeficiency virus 1, HEK-293T, read-out: EC50 cell infectivity assay, wild type IN
Protocol: as §3

SMILES: O=C(O)C(O)=CC(=O)c1cn(Cc2ccc(F)cc2)c2cccc(O)c12 [CHI-1043, 4-[1-(4-Fluorobenzyl)-4-hydroxy-1H-indol-3-yl]-2-hydroxy-4-oxobut-2-enoic acid]
- IC50 (HIV IN [1]): 0.14 µM
- IC50 (LEDGF site of HIV IN): 36 µM

SMILES: O=C1Cc2ccccc2/C1=C\c1ccc2c(c1C(=O)O)OCO2 [Compound 2]
- IC50 [2]: 200 µM

SMILES: O=C(O)c1c(/C=C2\c3ccccc3CC2O)ccc2c1OCO2 (stereo not shown) [Compound 3]
- IC50 [2]: 270 µM

SMILES: O=C(O)c1c(CN2Cc3ccccc3C(=O)N(Cc3ccccc3)C2)ccc2c1OCO2 [Compound 4]
- EC50 (HIV-1NL4-3): 275 µM
- CC50 at 6 days [3]: 265 µM
- binding in the SPR assay (in words) [4]: did not bind
- IC50 [2]: 110 µM

SMILES: COc1ccc(CN2CN(Cc3ccc4c(c3C(=O)O)OCO4)Cc3ccccc3C2=O)cc1 [Compound 5]
- IC50 [2]: 600 µM

SMILES: COc1ccc(CNC(=O)c2ccccc2CNCc2ccc3c(c2C(=O)O)OCO3)cc1 [Compound 6]
- binding in the SPR assay (in words) [4]: binding could not be detected
- IC50 [2]: 270 µM

SMILES: COc1ccc(CNC(=O)c2ccccc2CN(C)Cc2ccc3c(c2C(=O)O)OCO3)cc1 [Compound 7]
- IC50 [2]: 220 µM

SMILES: CN(Cc1ccccc1C(=O)NCC1CCCCC1)Cc1ccc2c(c1C(=O)O)OCO2 [Compound 8]
- binding in the SPR assay (in words) [4]: loss of SPR activity
- IC50 [2]: 100 µM

SMILES: C=CCN(Cc1ccccc1C(=O)NCc1ccc(OC)cc1)Cc1ccc2c(c1C(=O)O)OCO2 [Compound 9]
- binding in the SPR assay (in words) [4]: retained SPR activity
- IC50 [2]: 815 µM

SMILES: C=CCN(Cc1ccccc1C(=O)NC(CCC)c1ccc(OC)cc1)Cc1ccc2c(c1C(=O)O)OCO2 (stereo not shown) [Compound 10]
- IC50 (Flag-His6 fusion protein): 175 µM
- activity in strand transfer assay (HIV IN [5]): inactive
- IC50 [2]: 29 µM

SMILES: C=CCN(Cc1ccccc1C(=O)NC(c1ccc(OC)cc1)c1ccc(OC)cc1)Cc1ccc2c(c1C(=O)O)OCO2 [Compound 11]
- IC50 (Flag-His6 fusion protein): 145 µM
- EC50 [6]: 54 µM
- EC50 (HIV-1NL4-3): 29 µM
- CC50 at 6 days [3]: > 100 µM
- EC50 [7]: 37 µM
- activity in strand transfer assay (HIV IN [5]): inactive

SMILES: CCCC(C(=O)O)c1c(C)nc2ccc(Cl)cc2c1-c1ccccc1 (stereo not shown) [LEDGIN-6]
- IC50 [8]: 1.37 µM
- EC50 (HIV-1 [9]): 3.45 µM
- IC50 (HIV IN [10]): 19.5 µM
- EC50 (HIV-1 [11]): 2.73 µM

SMILES: O=C(NCC1CCCCC1)c1cc(S(=O)(=O)N2CCCCC2)cc(O)c1O [N-(cyclohexylmethyl)-2,3-dihydroxy-5-(piperidin-1-ylsulfonyl) benzamide]
- IC50 (HIV IN [12]): 19 µM
- IC50 (HIV IN [13]): 8 µM

SMILES: Cc1nnc(C(=O)NC(C)(C)c2nc(C(=O)NCc3ccc(F)cc3)c(O)c(=O)n2C)o1 [raltegravir, reference compound]
- EC50 [6]: > 1 µM
- EC50 [7]: > 1 µM
- EC50 (HIV-1 with wild type IN): 0.01 µM
